This passage reports Ki results from ChEMBL document CHEMBL1144712, “Structure-guided design of C2-symmetric HIV-1 protease inhibitors based on a pyrrolidine scaffold” (J Med Chem, 2008).

In general, Ki refers to the equilibrium dissociation constant of an inhibitor or competing ligand from its target.

Sequence of Protease (Q9YQ12 whole entry): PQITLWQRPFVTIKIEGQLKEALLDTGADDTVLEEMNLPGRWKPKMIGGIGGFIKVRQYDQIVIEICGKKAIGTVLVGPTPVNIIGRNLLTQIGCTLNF

This assay has as its target Protease (Human immunodeficiency virus 1, UniProt Q9YQ12). The experiment in a line: Inhibition of HIV1 recombinant protease expressed in Escherichia coli.
Consider `O=S(=O)(c1ccccc1)N(Cc1ccc(Br)cc1)[C@H]1CNC[C@@H]1N(Cc1ccc(Br)cc1)S(=O)(=O)c1ccccc1`, for which the Ki came out at 460 nM.
To `O=S(=O)(c1ccccc1)N(Cc1ccc(C(F)(F)F)cc1)[C@H]1CNC[C@@H]1N(Cc1ccc(C(F)(F)F)cc1)S(=O)(=O)c1ccccc1` belongs 800 nM; to `O=[N+]([O-])c1ccc(S(=O)(=O)N(Cc2ccccc2)[C@H]2CNC[C@@H]2N(Cc2ccccc2)S(=O)(=O)c2ccc([N+](=O)[O-])cc2)cc1`, 1720 nM; to `C=CCN([C@H]1CNC[C@@H]1N(CC=C)S(=O)(=O)c1ccccc1)S(=O)(=O)c1ccccc1`, 12300 nM.
To `Cc1ccccc1S(=O)(=O)N(Cc1ccccc1)[C@H]1CNC[C@@H]1N(Cc1ccccc1)S(=O)(=O)c1ccccc1C` belongs 670 nM; to `CC(C)=CCN([C@H]1CNC[C@@H]1N(CC=C(C)C)S(=O)(=O)c1ccccc1)S(=O)(=O)c1ccccc1`, 1570 nM.
With `C=C(C)CN([C@H]1CNC[C@@H]1N(CC(=C)C)S(=O)(=O)c1ccccc1)S(=O)(=O)c1ccccc1`, the Ki came out at 74700 nM.
